In PMC11300601, “Zurletrectinib is a next-generation TRK inhibitor with strong intracranial activity against NTRK fusion-positive tumours with on-target resistance to first-generation agents” (British Journal of Cancer, 2024):
Read-outs that look alike come from different tables or passages of the source.

Tests used:
Ba/F3 LMNA-NTRK1-G667S = assay: Ba/F3 cell viability (anti-proliferative activity); format: cell-based, mouse
Kor1 = assay: CellTiter-Glo cell viability, Kor1 primary CRC cell line (TPM3-NTRK1); format: cell-based, human; conditions: TPM3-NTRK1 fusion, 72 h, read-out: IC50 against Kor1 cell line
Source text: (§1) NTRK fusion-positive colorectal cancer cell lines IRC, Kor1, and KM12 were utilized. The IRC and the KM12 cell lines were obtained from Dr. Bardelli and cultured according to the described protocols. The Kor1 cell line was obtained from Lee et al. and cultured on laminin pre-treated plates in RPMI media supplemented with 10% Fetal Bovine Serum (FBS). All cell lines were authenticated by STR and periodically screened for the presence of mycoplasma. For the mutant models, two human-derived colorectal cancer cell lines (IRC) and two mouse-derived glioma models (NLS) were used. […] Sequencing of the double mutant cell line was performed using MSK-IMPACT [25]. IRC primary cell lines were cultured with DMEM/F12 50:50 Mix (Corning) supplemented with 10% FBS. NLS Bcan-Ntrk1 Trka G598R and Bcan-Ntrk1 Trka G670C single mutants as well as double mutants NLS Bcan-Ntrk1 Trka G598R/G670A and NLS Bcan-Ntrk1 Trka G598R/G670C isogenic models were established using CRISPR/Cas9 to knock-in TRKA solvent-front and xDFG mutations into tumor cells derived from a Bcan-Ntrk1-driven glioma mouse model. Trka G598R is the mouse ortholog to human TRKA G595R while Trka G670A and Trka G670C are the mouse ortholog to human TRKA G667A and TRKA G667C, respectively. Mouse p53 ^−/^− Bcan-Ntrk1 glioma cells were plated on laminin-coated plates and cultured with Neurocult Stem Cell Basal Media with Proliferation Supplements (Stem Cell Technologies). […]
(§2) CellTiter-Glo Cell Viability Assays (Promega) and crystal violet clonogenic assays were performed on primary NTRK fusion-positive colorectal cancer cell lines, mouse Ba/F3 cell lines and isogenic mouse glioma cell lines. […] Absorbance was read at 490 nm in accordance with Promega’s protocol. […]
(§3) Statistical analyses were conducted using GraphPad Prism 9 (GraphPad Software Inc.). […] Measurements were assessed for normal distribution and homogeneity of variance using appropriate tests and were analyzed using analysis of variance or T-Tests, and nonparametric tests were used for non-normal distributed data. […]

Ba/F3 LMNA-NTRK1-F589L = assay: Ba/F3 cell viability (anti-proliferative activity); format: cell-based, mouse
Source text: (§4) NTRK fusion-positive colorectal cancer cell lines IRC, Kor1, and KM12 were utilized. The IRC and the KM12 cell lines were obtained from Dr. Bardelli and cultured according to the described protocols. The Kor1 cell line was obtained from Lee et al. and cultured on laminin pre-treated plates in RPMI media supplemented with 10% Fetal Bovine Serum (FBS). All cell lines were authenticated by STR and periodically screened for the presence of mycoplasma. For the mutant models, two human-derived colorectal cancer cell lines (IRC) and two mouse-derived glioma models (NLS) were used. […] Sequencing of the double mutant cell line was performed using MSK-IMPACT [25]. IRC primary cell lines were cultured with DMEM/F12 50:50 Mix (Corning) supplemented with 10% FBS. NLS Bcan-Ntrk1 Trka G598R and Bcan-Ntrk1 Trka G670C single mutants as well as double mutants NLS Bcan-Ntrk1 Trka G598R/G670A and NLS Bcan-Ntrk1 Trka G598R/G670C isogenic models were established using CRISPR/Cas9 to knock-in TRKA solvent-front and xDFG mutations into tumor cells derived from a Bcan-Ntrk1-driven glioma mouse model. Trka G598R is the mouse ortholog to human TRKA G595R while Trka G670A and Trka G670C are the mouse ortholog to human TRKA G667A and TRKA G667C, respectively. Mouse p53 ^−/^− Bcan-Ntrk1 glioma cells were plated on laminin-coated plates and cultured with Neurocult Stem Cell Basal Media with Proliferation Supplements (Stem Cell Technologies). Ba/F3 cell lines stably expressing WT and mutant versions (i.e. G595R, G667C/A, V573M, F589L, F633L, F617L, G623R/E, G639R, G696A/C, G709C, V608D/M) of human TRKA, TRKB or TRKC were generated using either lentiviral transduction or standard transfection methods by a contract research organization (Kyinno, Beijing, China).
(§5) CellTiter-Glo Cell Viability Assays (Promega) and crystal violet clonogenic assays were performed on primary NTRK fusion-positive colorectal cancer cell lines, mouse Ba/F3 cell lines and isogenic mouse glioma cell lines. For the CellTiter-Glo assays, three biological replicates were performed, with each condition being assayed in triplicate determinations. Cells were seeded in a 96-well plate in the afternoon at optimal density. […] Plates were removed from the incubator 72 h later and CellTiter-Glo reagent was added. Absorbance was read at 490 nm in accordance with Promega’s protocol. Data is presented as a survival percentage on the y-axis (mean ± STDEV) normalized to the control DMSO-treated cells deemed 100% viable. Drug concentrations on the x-axis are represented as a base 10 logarithm (LOG). For the crystal violet assays, cells were seeded in a 24-well plate at optimal densities in the afternoon. […] Crystal violet plates were removed from the incubator 72 h later, washed with PBS, fixed with 4% paraformaldehyde for 15 min, and stained with crystal violet for 10 min. Crystal violet was washed off and plates were left to dry prior to imaging. Clonogenic assays were performed in three biological replicates.
(§6) Statistical analyses were conducted using GraphPad Prism 9 (GraphPad Software Inc.). For CellTiter-Glo assays, raw data obtained were normalized to the DMSO control utilizing Microsoft Excel. […] Data is presented as the mean ± standard deviation (STDEV) of all replicates. Measurements were assessed for normal distribution and homogeneity of variance using appropriate tests and were analyzed using analysis of variance or T-Tests, and nonparametric tests were used for non-normal distributed data. Animal studies utilized five arms with six or eight mice per arm. A Kaplan–Meier test was used to assess lifespan characteristics and for comparison between groups. Median survivals were obtained using GraphPad Prism 9. Sample size was based on statistical power analysis to ensure sufficient capability to detect a pre-specified effect size. We assumed a moderate effect size, with an alpha level set at 0.05, and a power (1-β) set at 0.80.

Ba/F3 LMNA-NTRK1-G667A = assay: Ba/F3 cell viability (anti-proliferative activity); format: cell-based, mouse
Source text: as §4, §5, §6

Ba/F3-LMNA-NTRK1-V573M = assay: Ba/F3 cell viability (anti-proliferative activity); format: cell-based, mouse
Source text: as §4, §5, §6

Ba/F3 LMNA-NTRK1-A608D = assay: Ba/F3 cell viability (anti-proliferative activity); format: cell-based, mouse
Source text: as §4, §5, §6

Ba/F3 LMNA-NTRK1 = assay: Ba/F3 cell viability (anti-proliferative activity); format: cell-based, mouse
Source text: as §4, §5, §6

Ba/F3 LMNA-NTRK1-G595R = assay: Ba/F3 cell viability (anti-proliferative activity); format: cell-based, mouse
Source text: as §4, §5, §6

Ba/F3 LMNA-NTRK1-G667C = assay: Ba/F3 cell viability (anti-proliferative activity); format: cell-based, mouse
Source text: as §4, §5, §6

IRC-I-XL = assay: CellTiter-Glo cell viability, IRC-I-XL primary CRC cell line (LMNA-NTRK1); format: cell-based, human; conditions: LMNA-NTRK1 fusion, 72 h, read-out: IC50 against IRC-I-XL cell line
Source text: as §1, §2, §3

Molecule	IC50 (Ba/F3 LMNA-NTRK1-G667S; Mus musculus, BaF3)	IC50 (Kor1; Homo sapiens)	IC50 (Ba/F3 LMNA-NTRK1-F589L; Mus musculus, BaF3)	IC50 (Ba/F3 LMNA-NTRK1-G667A; Mus musculus, BaF3)	IC50 (Ba/F3-LMNA-NTRK1-V573M; Mus musculus, BaF3)	IC50 (Ba/F3 LMNA-NTRK1-A608D; Mus musculus, BaF3)	IC50 (Ba/F3 LMNA-NTRK1; Mus musculus, BaF3)	IC50 (Ba/F3 LMNA-NTRK1-G595R; Mus musculus, BaF3)	IC50 (Ba/F3 LMNA-NTRK1-G667C; Mus musculus, BaF3)	IC50 (IRC-I-XL; Homo sapiens)	IC50 (Ba/F3 LMNA-NTRK1-G667S)	IC50 (Kor1)	IC50 (Ba/F3 LMNA-NTRK1-F589L)	IC50 (Ba/F3 LMNA-NTRK1-G667A)	IC50 (Ba/F3-LMNA-NTRK1-V573M)	IC50 (Ba/F3 LMNA-NTRK1-A608D)	IC50 (Ba/F3 LMNA-NTRK1)	IC50 (Ba/F3 LMNA-NTRK1-G595R)	IC50 (Ba/F3 LMNA-NTRK1-G667C)	IC50 (IRC-I-XL)
C[C@@H]1CCc2ncc(F)cc2[C@H]2CCCN2c2ccn3ncc(c3n2)C(=O)N1 [Selitrectinib, selitrectinib]	537 nM	13 nM	46.9 nM	21.1 nM	5.47 nM	3.16 nM	3.38 nM	18.1 nM	164 nM	4.6 nM	–	–	–	–	–	–	–	–	–	–
O=C(Nc1cnn2ccc(N3CCC[C@@H]3c3cc(F)ccc3F)nc12)N1CC[C@H](O)C1 [Larotrectinib, larotrectinib]	3200 nM	24.8 nM	614 nM	118 nM	45.4 nM	19.7 nM	21.8 nM	3200 nM	1370 nM	13.4 nM	–	–	–	–	–	–	–	–	–	–
zurletrectinib	–	–	–	–	–	–	–	–	–	–	193 nM	7.2 nM	40.8 nM	5.27 nM	2.33 nM	1.18 nM	1.2 nM	11 nM	38.8 nM	0.47 nM
